Measurements from the kinase profiling compilation of Christmann-Franck et al. (2016).

Key:
Assay in all cases: radiometric filter-binding kinase assay, Kinaseprofiler
[1] = target: FYN (human) (UniProt P06241); settings: ATP 70 µM
[2] = target: ERBB4 (human) (UniProt Q15303); settings: ATP 15 µM
[3] = target: CSK (human) (UniProt P41240); settings: ATP 15 µM
[4] = target: GSG2 (human) (UniProt Q8TF76); settings: ATP 70 µM
[5] = target: STK24 (human) (UniProt Q9Y6E0); settings: ATP 15 µM
[6] = target: ALK (human) (UniProt Q9UM73); settings: ATP 200 µM
[7] = target: JAK3 JH1 catalytic (human) (UniProt P52333); settings: ATP 10 µM
[8] = target: STK4 (human) (UniProt Q13043); settings: ATP 90 µM
[9] = target: HIPK3 (human) (UniProt Q9H422); settings: ATP 15 µM
[10] = target: RPS6KA6 KD1 KD2 (human) (UniProt Q9UK32); settings: ATP 45 µM
[11] = target: EPHA3 (human) (UniProt P29320); settings: ATP 120 µM
[12] = target: CSNK2A2 (human) (UniProt P19784); settings: ATP 10 µM
CSNK2A2 (human), sequence (P19784 whole entry, looked up): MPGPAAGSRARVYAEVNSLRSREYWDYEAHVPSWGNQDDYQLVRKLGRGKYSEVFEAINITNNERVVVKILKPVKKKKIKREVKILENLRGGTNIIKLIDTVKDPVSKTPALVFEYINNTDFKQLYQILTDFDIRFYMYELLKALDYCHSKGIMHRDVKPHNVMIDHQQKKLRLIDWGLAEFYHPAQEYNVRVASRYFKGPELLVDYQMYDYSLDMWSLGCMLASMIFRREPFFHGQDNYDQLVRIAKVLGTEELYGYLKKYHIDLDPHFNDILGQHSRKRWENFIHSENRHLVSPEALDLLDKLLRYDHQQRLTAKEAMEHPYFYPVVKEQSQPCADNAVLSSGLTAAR

[13] = target: CHUK (human) (UniProt O15111); settings: ATP 10 µM
[14] = target: CLK3 (human) (UniProt P49761); settings: ATP 90 µM
[15] = target: TSSK1B (human) (UniProt Q9BXA7); settings: ATP 15 µM
TSSK1B (human), sequence (Q9BXA7 whole entry, looked up): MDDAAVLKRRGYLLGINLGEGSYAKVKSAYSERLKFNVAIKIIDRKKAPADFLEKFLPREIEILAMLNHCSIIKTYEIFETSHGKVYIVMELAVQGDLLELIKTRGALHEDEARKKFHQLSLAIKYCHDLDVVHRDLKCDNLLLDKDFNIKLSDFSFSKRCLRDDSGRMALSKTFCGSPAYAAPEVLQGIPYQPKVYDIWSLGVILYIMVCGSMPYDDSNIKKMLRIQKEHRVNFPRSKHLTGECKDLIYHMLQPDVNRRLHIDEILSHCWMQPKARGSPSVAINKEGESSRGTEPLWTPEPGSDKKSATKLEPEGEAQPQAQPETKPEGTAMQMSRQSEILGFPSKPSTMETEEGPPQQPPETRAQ

[16] = target: PRKCB2 (human) (UniProt P05771); settings: ATP 10 µM
PRKCB2 (human), sequence (P05771 whole entry, looked up): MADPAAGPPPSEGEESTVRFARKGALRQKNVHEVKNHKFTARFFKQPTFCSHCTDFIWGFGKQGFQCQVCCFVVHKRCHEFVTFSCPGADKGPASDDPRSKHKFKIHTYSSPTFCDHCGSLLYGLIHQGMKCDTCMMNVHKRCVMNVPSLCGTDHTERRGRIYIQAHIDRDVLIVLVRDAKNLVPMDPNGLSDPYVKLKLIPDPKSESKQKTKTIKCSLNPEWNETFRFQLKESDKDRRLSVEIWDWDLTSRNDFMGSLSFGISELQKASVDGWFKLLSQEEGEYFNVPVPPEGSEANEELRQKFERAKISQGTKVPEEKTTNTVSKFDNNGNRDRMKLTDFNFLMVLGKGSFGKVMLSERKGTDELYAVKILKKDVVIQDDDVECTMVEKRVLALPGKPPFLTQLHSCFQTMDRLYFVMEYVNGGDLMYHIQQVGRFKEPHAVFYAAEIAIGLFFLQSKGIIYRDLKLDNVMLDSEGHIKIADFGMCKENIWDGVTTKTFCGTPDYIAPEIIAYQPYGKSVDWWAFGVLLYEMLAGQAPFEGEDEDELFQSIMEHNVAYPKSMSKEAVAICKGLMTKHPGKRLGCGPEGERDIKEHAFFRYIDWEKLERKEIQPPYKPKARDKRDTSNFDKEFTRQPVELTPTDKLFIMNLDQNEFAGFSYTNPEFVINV

[17] = target: PRKCB1 (human) (UniProt P05771); settings: ATP 10 µM
PRKCB1 (human), sequence (P05771 whole entry, looked up): as above

[18] = target: RPS6KA3 KD1 KD2 (human) (UniProt P51812); settings: ATP 10 µM
RPS6KA3 KD1 KD2 (human), sequence (P51812 whole entry, looked up): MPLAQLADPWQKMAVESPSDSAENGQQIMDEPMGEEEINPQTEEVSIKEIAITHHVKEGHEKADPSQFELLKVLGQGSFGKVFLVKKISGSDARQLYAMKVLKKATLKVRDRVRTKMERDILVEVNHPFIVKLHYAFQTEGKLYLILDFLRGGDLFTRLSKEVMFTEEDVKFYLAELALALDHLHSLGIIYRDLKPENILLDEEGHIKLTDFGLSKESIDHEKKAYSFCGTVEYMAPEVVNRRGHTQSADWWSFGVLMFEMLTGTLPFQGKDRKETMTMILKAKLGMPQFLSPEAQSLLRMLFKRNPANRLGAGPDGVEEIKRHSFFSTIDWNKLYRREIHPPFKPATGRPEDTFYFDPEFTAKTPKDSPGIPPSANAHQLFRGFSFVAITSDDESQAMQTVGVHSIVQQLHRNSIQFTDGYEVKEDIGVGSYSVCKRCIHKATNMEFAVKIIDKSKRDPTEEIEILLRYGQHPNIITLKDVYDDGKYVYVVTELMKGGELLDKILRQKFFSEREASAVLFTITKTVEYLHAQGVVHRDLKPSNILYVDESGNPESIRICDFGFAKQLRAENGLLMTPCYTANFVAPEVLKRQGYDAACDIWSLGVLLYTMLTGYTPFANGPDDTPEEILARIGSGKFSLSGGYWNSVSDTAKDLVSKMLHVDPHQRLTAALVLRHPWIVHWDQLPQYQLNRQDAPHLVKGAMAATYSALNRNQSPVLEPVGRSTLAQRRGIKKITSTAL

[19] = target: MAP2K1 (human) (UniProt Q02750); settings: ATP 10 µM
[20] = target: CSF1R (human) (UniProt P07333); settings: ATP 200 µM
[21] = target: MKNK2 (human) (UniProt Q9HBH9); settings: ATP 120 µM
[22] = target: PASK (human) (UniProt Q96RG2); settings: ATP 15 µM
[23] = target: MYLK (human) (UniProt Q15746); settings: ATP 70 µM
[24] = target: MAP3K7 (human) (UniProt O43318); settings: ATP 45 µM
[25] = target: WNK2 (human) (UniProt Q9Y3S1); settings: ATP 200 µM
WNK2 (human), sequence (Q9Y3S1 whole entry, looked up): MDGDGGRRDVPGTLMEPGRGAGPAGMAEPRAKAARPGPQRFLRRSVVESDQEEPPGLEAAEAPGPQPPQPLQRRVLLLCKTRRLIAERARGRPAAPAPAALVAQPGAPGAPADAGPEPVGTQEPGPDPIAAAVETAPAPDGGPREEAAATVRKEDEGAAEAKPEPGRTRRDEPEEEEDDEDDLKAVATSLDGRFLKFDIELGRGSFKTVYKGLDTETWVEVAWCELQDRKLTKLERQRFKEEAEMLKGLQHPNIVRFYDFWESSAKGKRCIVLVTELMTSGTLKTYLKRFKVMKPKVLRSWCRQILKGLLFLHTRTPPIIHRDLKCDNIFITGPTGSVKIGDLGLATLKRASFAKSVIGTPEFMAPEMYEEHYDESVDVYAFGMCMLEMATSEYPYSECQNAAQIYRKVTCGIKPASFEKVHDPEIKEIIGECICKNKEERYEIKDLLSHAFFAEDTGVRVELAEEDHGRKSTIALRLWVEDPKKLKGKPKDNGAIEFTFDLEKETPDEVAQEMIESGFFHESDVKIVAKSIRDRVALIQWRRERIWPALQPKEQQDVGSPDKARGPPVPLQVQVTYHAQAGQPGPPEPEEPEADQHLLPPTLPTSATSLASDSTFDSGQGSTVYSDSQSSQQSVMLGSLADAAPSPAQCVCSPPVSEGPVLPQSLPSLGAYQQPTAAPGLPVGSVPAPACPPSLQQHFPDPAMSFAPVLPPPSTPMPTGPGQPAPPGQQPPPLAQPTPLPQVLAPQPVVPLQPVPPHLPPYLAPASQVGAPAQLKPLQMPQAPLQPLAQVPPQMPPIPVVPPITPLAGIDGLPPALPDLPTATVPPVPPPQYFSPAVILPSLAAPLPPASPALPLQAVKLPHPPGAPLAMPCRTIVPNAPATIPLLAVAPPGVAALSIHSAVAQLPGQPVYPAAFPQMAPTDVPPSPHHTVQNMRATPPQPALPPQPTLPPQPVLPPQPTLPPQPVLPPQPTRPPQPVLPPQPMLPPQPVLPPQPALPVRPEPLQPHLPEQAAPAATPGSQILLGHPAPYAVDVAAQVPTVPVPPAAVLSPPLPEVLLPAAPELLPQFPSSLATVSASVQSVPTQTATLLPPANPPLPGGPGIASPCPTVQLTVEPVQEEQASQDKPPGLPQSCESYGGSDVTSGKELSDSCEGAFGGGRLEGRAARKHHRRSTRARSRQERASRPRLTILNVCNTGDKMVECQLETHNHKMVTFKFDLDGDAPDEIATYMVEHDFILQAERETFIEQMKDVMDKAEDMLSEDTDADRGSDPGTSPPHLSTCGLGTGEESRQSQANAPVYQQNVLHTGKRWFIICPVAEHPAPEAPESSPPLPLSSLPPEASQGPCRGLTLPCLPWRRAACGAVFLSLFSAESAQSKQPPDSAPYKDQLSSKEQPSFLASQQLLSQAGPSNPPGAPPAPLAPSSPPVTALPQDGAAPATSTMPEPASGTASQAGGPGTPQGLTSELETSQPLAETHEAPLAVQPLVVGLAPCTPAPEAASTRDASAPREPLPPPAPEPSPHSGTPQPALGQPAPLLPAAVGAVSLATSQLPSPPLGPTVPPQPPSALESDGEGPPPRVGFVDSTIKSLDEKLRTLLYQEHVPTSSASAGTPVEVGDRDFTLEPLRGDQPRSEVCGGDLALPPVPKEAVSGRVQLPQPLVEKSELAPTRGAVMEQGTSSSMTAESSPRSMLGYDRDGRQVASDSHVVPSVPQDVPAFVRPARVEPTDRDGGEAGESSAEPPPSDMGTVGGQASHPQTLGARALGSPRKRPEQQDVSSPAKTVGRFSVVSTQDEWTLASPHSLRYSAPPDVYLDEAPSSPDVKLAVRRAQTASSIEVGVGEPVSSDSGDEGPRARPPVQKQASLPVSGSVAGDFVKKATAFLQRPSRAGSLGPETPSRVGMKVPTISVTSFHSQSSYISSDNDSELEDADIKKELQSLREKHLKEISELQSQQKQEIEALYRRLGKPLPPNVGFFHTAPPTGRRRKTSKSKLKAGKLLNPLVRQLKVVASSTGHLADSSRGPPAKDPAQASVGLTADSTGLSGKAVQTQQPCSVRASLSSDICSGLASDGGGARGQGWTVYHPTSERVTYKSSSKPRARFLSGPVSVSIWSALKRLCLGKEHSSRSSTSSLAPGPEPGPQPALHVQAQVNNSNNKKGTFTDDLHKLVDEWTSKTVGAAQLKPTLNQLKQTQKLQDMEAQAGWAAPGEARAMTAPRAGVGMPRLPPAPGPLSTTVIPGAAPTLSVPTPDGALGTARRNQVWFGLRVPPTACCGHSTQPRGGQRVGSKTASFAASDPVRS

[26] = target: STK10 (human) (UniProt O94804); settings: ATP 200 µM
[27] = test system: GSK3A (human), P49840 [S449A]; settings: ATP 10 µM
[28] = target: FLT1 (human) (UniProt P17948); settings: ATP 200 µM

`O=C1c2ccccc2-c2n[nH]c3cccc1c23` gave a residual activity ([1]; compound 1.0 µM) of 60%, a residual activity ([1]; compound 10.0 µM) of 47% and a residual activity ([2]; compound 1.0 µM) of 104%. It also gave a residual activity ([2]; compound 10.0 µM) of 97%, a residual activity ([3]; compound 1.0 µM) of 105% and a residual activity ([3]; compound 10.0 µM) of 93%. It also gave a residual activity ([4]; compound 1.0 µM) of 10%, a residual activity ([4]; compound 10.0 µM) of -1% and a residual activity ([5]; compound 1.0 µM) of 57%. It also gave a residual activity ([5]; compound 10.0 µM) of 21%, a residual activity ([6]; compound 1.0 µM) of 61% and a residual activity ([6]; compound 10.0 µM) of 29%. The residual activity ([7]; compound 1.0 µM) was 57%, the residual activity ([7]; compound 10.0 µM) was 9% and the residual activity ([8]; compound 1.0 µM) was 52%. For the same compound, the residual activity ([8]; compound 10.0 µM) was 21%, the residual activity ([9]; compound 1.0 µM) was 73% and the residual activity ([9]; compound 10.0 µM) was 19%. The residual activity ([10]; compound 1.0 µM) was 43%, the residual activity ([10]; compound 10.0 µM) was 52% and the residual activity ([11]; compound 1.0 µM) was 75%. The residual activity ([11]; compound 10.0 µM) was 48%, the residual activity ([12]; compound 1.0 µM) was 59% and the residual activity ([12]; compound 10.0 µM) was 18%. For the same compound, the residual activity ([13]; compound 1.0 µM) was 57%, the residual activity ([13]; compound 10.0 µM) was 21% and the residual activity ([14]; compound 1.0 µM) was 72%. For the same compound, the residual activity ([14]; compound 10.0 µM) was 34%, the residual activity ([15]; compound 1.0 µM) was 75% and the residual activity ([15]; compound 10.0 µM) was 49%. For the same compound, the residual activity ([16]; compound 1.0 µM) was 108%, the residual activity ([16]; compound 10.0 µM) was 102% and the residual activity ([17]; compound 1.0 µM) was 102%. For the same compound, the residual activity ([17]; compound 10.0 µM) was 104%, the residual activity ([18]; compound 1.0 µM) was 54% and the residual activity ([18]; compound 10.0 µM) was 32%. The residual activity ([19]; compound 1.0 µM) was 75%, the residual activity ([19]; compound 10.0 µM) was 50% and the residual activity ([20]; compound 1.0 µM) was 36%. It also gave a residual activity ([20]; compound 10.0 µM) of 9%, a residual activity ([21]; compound 1.0 µM) of 43% and a residual activity ([21]; compound 10.0 µM) of 10%. The residual activity ([22]; compound 1.0 µM) was 125%, the residual activity ([22]; compound 10.0 µM) was 81% and the residual activity ([23]; compound 1.0 µM) was 29%. It also gave a residual activity ([23]; compound 10.0 µM) of 3%, a residual activity ([24]; compound 1.0 µM) of 41% and a residual activity ([24]; compound 10.0 µM) of 19%. It also gave a residual activity ([25]; compound 1.0 µM) of 79%, a residual activity ([25]; compound 10.0 µM) of 77% and a residual activity ([26]; compound 1.0 µM) of 87%. For the same compound, the residual activity ([26]; compound 10.0 µM) was 62%, the residual activity ([27]; compound 1.0 µM) was 54% and the residual activity ([27]; compound 10.0 µM) was 40%. The residual activity ([28]; compound 1.0 µM) was 26% and the residual activity ([28]; compound 10.0 µM) was 2%.
